Source: paper PMC9532951, “Identification and characterization of a novel SNAT2 (SLC38A2) inhibitor reveals synergy with glucose transport inhibition in cancer cells” (Frontiers in Pharmacology, 2022)
Values joined by “and” are separate entries in the source; they are usually repeats but may differ in a detail not shown here. Equal entries are not always repeated. Each block holds one compound with its values, some of them ahead of it.

Columns and labels:
SNAT1/2 [1] = assay: FMP assay: depolarisation by amino acid substrates in amino acid depleted HCC1806 cells; format: cell-based, human; conditions: for FMP fluorescence reading: amino acid 1 mM final
Description: The FLIPR Membrane Potential Blue Explorer Kit (Molecular Devices) was used to characterise inhibitors and to optimise a high-throughput compound screen. Cells were seeded at approximately 60,000 cells/well on a 96-well plate and allowed to attach and grow overnight in a cell incubator. […] Cells were then washed once with mHBSS and incubated with 50 µl of the mHBSS-resuspended FMP assay dye and 50 µl of mHBSS (with or without inhibitors) and incubated at room temperature for 30 min. The plate was then placed in an EnSpire Multimode plate reader (PerkinElmer) and four sequential measurements of fluorescence were recorded as a baseline reference. Immediately after the baseline measurements were taken, 25 µl of 5 mM glutamine dissolved in mHBSS was injected into each well and the plate was shaken orbitally for 5 s before a series of consecutive fluorescence measurements were taken. The excitation wavelength was set to 530 nm and the emission was detected at 565 nm. […] After the assay was complete, the liquid content of the plate was carefully removed, and the cell monolayer inspected to ensure it remained intact throughout the course of the assay.

SNAT2 = assay: Radiolabelled proline uptake in amino acid depleted SKOV3 cells; format: cell-based, human; conditions: for inhibition of proline uptake: 10 mM
Description: (§1) Functional characterisation of plasma membrane transporters in human cancer cells was determined at 37°C using an array of radiolabelled amino acid substrates. Modified Hanks HEPES-buffered salts solution (mHBSS; 137 mM NaCl; 5.4 mM KCl; 2.7 mM K2HPO4; 1 mM CaCl2; 0.5 mM MgCl2; 0.44 mM KH2PO4; 0.4 mM MgSO4; 5 mM D-glucose; 5 mM HEPES; pH 7.4) was used to wash and incubate cells where sodium dependent transport was measured, while N-methyl-D-glucamine (NMDG) and potassium salts substituted sodium in NMDG mHBSS to measure sodium independent uptake. For the assay, cells were seeded in 35 mm dishes and, once confluent, were washed thrice with warm mHBSS solution and incubated with mHBSS containing an 100 µM amino acid at a final specific activity of ≥2000 cpm/nmol (U-[^14C]amino acids were from PerkinElmer). After 6 min, cells were washed thrice with ice-cold mHBSS, lysed with 500 µl of 0.1 M HCl, detached with a cell scraper and triturated. A 400 µl aliquot was used for scintillation counting, while the remainder was saved for protein mass quantification by Bradford assay. Transport rates were normalised to the protein content of the culture dish.
IC50 were calculated using equation y=ymax(1−x/x+IC50)

SNAT1 = target: T1, SNAT1 (Homo sapiens, UniProt Q9H2H9); assay: Alanine uptake in HCC1806 D126 (ASCT2ko, SNAT2ko) cells; format: cell-based
T1 construct: SNAT1 remained active as indicated by the Na^+-dependence of alanine uptake; endogenous in cells; host or cells: HCC1806 clone D126 (ASCT2ko, SNAT2ko), amino acid depleted for 24 h
T1 sequence (Q9H2H9 1-487): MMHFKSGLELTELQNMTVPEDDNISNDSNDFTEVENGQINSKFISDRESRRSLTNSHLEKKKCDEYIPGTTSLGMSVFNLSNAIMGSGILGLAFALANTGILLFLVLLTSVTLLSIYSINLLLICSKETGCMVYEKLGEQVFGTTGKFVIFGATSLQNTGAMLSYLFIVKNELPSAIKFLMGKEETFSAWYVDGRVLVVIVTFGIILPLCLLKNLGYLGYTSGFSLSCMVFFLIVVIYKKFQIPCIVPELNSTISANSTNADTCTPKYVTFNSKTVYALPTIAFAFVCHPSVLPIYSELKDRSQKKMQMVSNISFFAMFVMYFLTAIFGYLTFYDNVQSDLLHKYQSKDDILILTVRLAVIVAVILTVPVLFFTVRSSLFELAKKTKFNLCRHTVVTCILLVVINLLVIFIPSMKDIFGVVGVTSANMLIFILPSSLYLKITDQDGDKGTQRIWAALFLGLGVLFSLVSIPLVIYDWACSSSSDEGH
Description: (§2) To delete the SNAT2 (SLC38A2) gene in modified HCC1806 cells (clone C10 nullizygous for ASCT2 ([Broer et al., 2019])), the GeneArt CRISPR Nuclease Vector with OFP Reporter Kit (Invitrogen; A21174) was employed and complementary 19–20 bp long single-stranded oligonucleotides with overhangs were designed to produce a guide RNA (gRNA) for the Cas9 nuclease that would target exon 7 of the SNAT2 gene. Colonies were analysed by sequencing using the U6 primer included in the GeneArt CRISPR Nuclease Vector with OFP Reporter kit. Plasmids that contained the correct CRISPR nuclease construct were then used to transfect HCC1806 cells with Lipofectamine 2000 (Invitrogen). Prior to transfection, medium was replaced with 2 ml of fresh DMEM/F-12 (supplemented with 10% heat-inactivated FBS and 2 mM glutamine). Plasmid DNA (4 µg) and 10 µL of Lipofectamine 2000 were incubated separately for 5 min at room temperature in 500 µl of Opti-MEM (Invitrogen) before being combined and incubated for a further 30 min at room temperature. The DNA-Lipofectamine complex was then added to the cells in a dropwise manner and allowed to be absorbed over 6 h at 37°C, after which the medium was renewed with fresh DMEM/F-12. Cells were checked for red fluorescence using an EVOS FL cell imaging system (Thermo Fisher Scientific) 48–72 h post transfection. Subsequently, cells were detached using 0.25% Trypsin EDTA. After harvesting and washing thrice with PBS (pH 7.4), cells were resuspended in PBS (pH 7.4) supplemented with 5 mM glucose and 1% dialysed and heat inactivated FBS and passed through a 100 μm cell strainer. The cell filtrate was then pelleted once more and resuspended in the same buffer. Cells were sorted using an ARIA II FACS machine and individually dispensed into the wells of a 96-well plate. Nullizygous clones were identified using a series of assays including the FLIPR membrane potential assay, western blotting and sequencing.
as §1

SNAT1 and SNAT2 [2] = assay: FMP assay in HCC1806 clones C10 (ASCT2ko) and D126 (ASCT2ko, SNAT2ko); format: cell-based, human; conditions: MeAIB 10 mM; glutamine 1 mM
Description: as §2
The FLIPR Membrane Potential Blue Explorer Kit (Molecular Devices) was used to characterise inhibitors and to optimise a high-throughput compound screen. Cells were seeded at approximately 60,000 cells/well on a 96-well plate and allowed to attach and grow overnight in a cell incubator. The next day, the cells were washed once with mHBSS and incubated in a starvation medium (composed of mHBSS with 1% dialysed heat-inactivated FBS, 23 mM NaHCO3, 10 U/ml penicillin and 10 μg/ml streptomycin) for 24 h. Cells were then washed once with mHBSS and incubated with 50 µl of the mHBSS-resuspended FMP assay dye and 50 µl of mHBSS (with or without inhibitors) and incubated at room temperature for 30 min. The plate was then placed in an EnSpire Multimode plate reader (PerkinElmer) and four sequential measurements of fluorescence were recorded as a baseline reference. Immediately after the baseline measurements were taken, 25 µl of 5 mM glutamine dissolved in mHBSS was injected into each well and the plate was shaken orbitally for 5 s before a series of consecutive fluorescence measurements were taken. The excitation wavelength was set to 530 nm and the emission was detected at 565 nm. The Δ fluorescent signal reported in the figures was taken 30 s after substrate addition. After the assay was complete, the liquid content of the plate was carefully removed, and the cell monolayer inspected to ensure it remained intact throughout the course of the assay.

SNAT1/2 [3] = assay: [14C]glutamine uptake in HCC1806 cells; format: cell-based, human
Description: as §1

SNAT1 and SNAT2 [4] = assay: High-throughput compound screen, FMP assay in 384-well format (primary, confirmatory, control compounds); format: cell-based, human; conditions: 10 mM, 1 mM glutamine
Description: For the high-throughput compound screen, the FMP assay was adapted into a 384-well format within the ANU Centre for Therapeutic Discovery. […] Compounds Australia stores compounds under robust environmental conditions and supplies them in assay ready plate format. We screened 33,934 compounds from the Collection Scaffold Library. Cells (10,000/well) were seeded into Corning 384-well black walled plates (CLS3985; Sigma-Aldrich) using a Multidrop Combi liquid dispensing robot (Thermo Fisher) in a 40 µl volume. Once seeded, cells were allowed to grow in a microplate incubator (Liconic) for 24 h at 37°C (humidified atmosphere with 95% air and 5% CO2). Subsequently, plates were washed thrice with 50 µL of mHBSS using a 405 TS washer (BioTek). Then, 50 µl of starvation medium was added and cells were incubated again for 24 h.
Assay-ready compound plates (384 well plates containing compound or DMSO controls) were then prepared prior to addition to cells. In addition to the supplied compounds, 5 µl γ-glutamyl-hydroxamate (GHX, 60 mM dissolved in mHBSS, serving as an inhibitor control) was added into inhibitor control wells using a JANUS G3 robot (PerkinElmer). Subsequently, 25 uL of mHBSS was dispensed into all wells of the 384 well plate using a Multidrop Combi. All samples were then mixed using the JANUS G3 robot and 15 µl dispensed on top of the cell monolayer to reach a final concentration of 10.05 µM.
The FMP dye was solved freshly with mHBSS, 20 µl of which was deposited into each well using the Multidrop Combi, and the cells were incubated at room temperatur for 30 min. Each plate was then placed in an EnVision microplate reader (PerkinElmer) and a single baseline measurement was taken for each well (bottom reads excitation at 531, emission at 579 nm). The plate was then transferred to the Multidrop Combi and 10 µl/well of 5 mM glutamine was dispensed into each well. After linearly shaking for 5 s, microplates were returned to the EnVision microplate reader for a single post-injection measurement per well. The change of fluorescence was measured after 60 s.
Z′ scores were calculated from the controls onboard each of the 384-well plates assayed in the primary and secondary screen as described by Zhang et al., ([Zhang et al., 1999]). For the control inhibitor γ-glutamyl-hydroxamate (GHX) a Z’ score of 0.717 was determined, which was a sufficient signal for a HTS.

HCC1806 cells = assay: [14C]alanine uptake in non-depleted HCC1806 cells; format: cell-based, human; conditions: amino acid replete HCC1806 cells
Description: as §1

- inhibition of alanine uptake (SNAT1; HCC1806 D126, Figure 4B, betaine and MeAIB 10 mM): inhibition
SMILES: CNC(C)(C)C(=O)O [MeAIB, N-methyl-aminoisobutyric acid]
- FMP response as substrate (SNAT1/2 [1]; 1 mM): weaker signal
- FMP fluorescence reading (SNAT1/2 [1]; t=0 s): 49084 and 50100 and 40663
- FMP fluorescence reading (SNAT1/2 [1]; t=15 s): 81984 and 86589 and 75934
- FMP fluorescence reading (SNAT1/2 [1]; t=30 s): 86634 and 91101 and 78520
- FMP fluorescence reading (SNAT1/2 [1]; t=45 s): 90066 and 93398 and 80464
- FMP fluorescence reading (SNAT1/2 [1]; t=60 s): 92350 and 95113 and 80900
- FMP fluorescence reading (SNAT1/2 [1]; t=75 s): 92919 and 96006 and 80942
- FMP fluorescence reading (SNAT1/2 [1]; t=90 s): 93944 and 96169 and 81331
- FMP fluorescence reading (SNAT1/2 [1]; t=105 s): 93680 and 96448 and 80487
- FMP fluorescence reading (SNAT1/2 [1]; t=120 s): 93733 and 95947 and 80206
- FMP fluorescence reading (SNAT1/2 [1]; t=135 s): 93032 and 95155 and 78841
- FMP fluorescence reading (SNAT1/2 [1]; t=-15 s): 48467 and 50314 and 40490
- FMP fluorescence reading (SNAT1/2 [1]; t=-30 s, replicates 1-3): 48576 and 50230 and 40217
- inhibition of proline uptake (SNAT2; Figure 4A): strong inhibition
- inhibition of proline uptake (SNAT2; Figure 4D (15 h starvation)): almost completely
- Proline uptake (nmol / mg protein x 6 min) (SNAT2; Figure 4A, 10mM, replicates 1-3): 3.275 nmol / mg protein x 6 min and 3.216 nmol / mg protein x 6 min and 2.965 nmol / mg protein x 6 min
- Proline uptake (nmol / mg protein x 6 min) (SNAT2; Figure 5B, reference inhibitors, replicates): 1.301 nmol / mg protein x 6 min and 1.471 nmol / mg protein x 6 min and 1.547 nmol / mg protein x 6 min
- Alanine uptake (nmol / mg protein x 6 min) (SNAT1; Figure 4B, 10mM, replicates 1-3): 11.1023 nmol / mg protein x 6 min and 10.5839 nmol / mg protein x 6 min and 9.888 nmol / mg protein x 6 min
- FMP signal in D126 cells (ASCT2ko, SNAT2ko) compared to C10 (SNAT1 and SNAT2 [2]): 42%
- Glutamine uptake (SNAT1/2 [3]; AA+ (growth medium), 100 µM glutamine, replicates 1-3): 39.8616 nmol / mg protein x 6 min and 35.3498 nmol / mg protein x 6 min and 40.7838 nmol / mg protein x 6 min
- Glutamine uptake (SNAT1/2 [3]; AA- (starvation medium 24 h), 100 µM glutamine, replicates 1-3): 8.629 nmol / mg protein x 6 min and 3.7831 nmol / mg protein x 6 min and 8.492 nmol / mg protein x 6 min
- Glutamine uptake (nmol / mg protein x 6 min) (SNAT1/2 [3]; Figure 3D, replicates 1-3): 35.1959 nmol / mg protein x 6 min and 29.1234 nmol / mg protein x 6 min and 25.7847 nmol / mg protein x 6 min
- reduction of glutamine uptake (SNAT1/2 [3]; amino acid depleted HCC1806 cells (24 h), 100 µM glutamine): 80%
- inhibition of glutamine uptake (SNAT1/2 [3]; fed HCC1806 cells): barely inhibited

SMILES: OC[C@H]1OC(O)[C@H](O)[C@@H](O)[C@@H]1O (stereo partly shown) [glucose]
- influence on FMP signal (SNAT1 and SNAT2 [4]): did not influence the signal

SMILES: N[C@@H](CCC(=O)Nc1ccc([N+](=O)[O-])cc1)C(=O)O [GPNA, γ-glutamyl-p-nitroanilide]
- inhibition of alanine transport (HCC1806 cells): inhibited a large fraction of alanine transport

SMILES: CC(=O)C(=O)O [pyruvate]
- influence on FMP signal (SNAT1 and SNAT2 [4]): did not influence the signal
